Laboratory results reported in ChEMBL document CHEMBL5442219.

Assays:
Settings in all cases: Compound concentration 10 µM
[1] = target: Histamine H2 receptor (Homo sapiens) (UniProt P25021)
Description: PDSP Primary Binding target: HRH2 - Compounds are tested at 10 uM concentration, plate are incubated at room temperature in the dark for 90 minutes. Reaction are stopped by vacuum filtration onto 0.3% polyethyleneimine soaked filter mats using Filtermate harvester. Scintilation cocktail is then melted onto microwave-dried filters on a hot plate and the radio activity is counted in Microbia counter.

[2] = target: T1, 5-hydroxytryptamine receptor 3A (Homo sapiens) (UniProt P46098)
T1 sequence (whole entry): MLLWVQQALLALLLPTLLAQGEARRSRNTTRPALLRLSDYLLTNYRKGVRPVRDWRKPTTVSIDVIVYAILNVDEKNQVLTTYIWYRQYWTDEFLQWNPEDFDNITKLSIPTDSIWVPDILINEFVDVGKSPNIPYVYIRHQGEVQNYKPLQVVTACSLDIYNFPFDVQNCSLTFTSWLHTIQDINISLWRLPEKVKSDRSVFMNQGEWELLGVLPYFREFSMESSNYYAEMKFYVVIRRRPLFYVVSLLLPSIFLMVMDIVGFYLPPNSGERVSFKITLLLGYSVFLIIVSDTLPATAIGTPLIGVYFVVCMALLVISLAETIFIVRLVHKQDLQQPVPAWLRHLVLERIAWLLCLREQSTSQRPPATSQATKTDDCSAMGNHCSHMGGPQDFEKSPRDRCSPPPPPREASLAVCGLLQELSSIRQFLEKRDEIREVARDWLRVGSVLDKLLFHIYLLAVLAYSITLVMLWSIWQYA
Description: PDSP Primary Binding target: HTR3A - Compounds are tested at 10 uM concentration, plate are incubated at room temperature in the dark for 90 minutes. Reaction are stopped by vacuum filtration onto 0.3% polyethyleneimine soaked filter mats using Filtermate harvester. Scintilation cocktail is then melted onto microwave-dried filters on a hot plate and the radio activity is counted in Microbia counter.

[3] = target: Beta-3 adrenergic receptor (Homo sapiens) (UniProt P13945)
Sequence of Beta-3 adrenergic receptor (Homo sapiens) (P13945 whole entry, looked up): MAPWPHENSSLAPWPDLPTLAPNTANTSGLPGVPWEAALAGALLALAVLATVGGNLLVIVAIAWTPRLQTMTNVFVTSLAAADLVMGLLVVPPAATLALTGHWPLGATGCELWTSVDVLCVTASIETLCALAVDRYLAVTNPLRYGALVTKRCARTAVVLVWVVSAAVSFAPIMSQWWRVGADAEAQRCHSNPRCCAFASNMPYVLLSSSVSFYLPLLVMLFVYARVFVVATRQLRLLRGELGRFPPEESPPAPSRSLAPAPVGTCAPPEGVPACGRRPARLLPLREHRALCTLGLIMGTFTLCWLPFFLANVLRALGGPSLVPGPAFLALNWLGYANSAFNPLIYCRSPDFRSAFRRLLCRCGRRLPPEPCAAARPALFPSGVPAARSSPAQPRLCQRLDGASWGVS
Description: PDSP Primary Binding target: ADRB3 - Compounds are tested at 10 uM concentration, plate are incubated at room temperature in the dark for 90 minutes. Reaction are stopped by vacuum filtration onto 0.3% polyethyleneimine soaked filter mats using Filtermate harvester. Scintilation cocktail is then melted onto microwave-dried filters on a hot plate and the radio activity is counted in Microbia counter.

[4] = target: T2, Muscarinic acetylcholine receptor M5 (Homo sapiens) (UniProt P08912)
T2 sequence (whole entry): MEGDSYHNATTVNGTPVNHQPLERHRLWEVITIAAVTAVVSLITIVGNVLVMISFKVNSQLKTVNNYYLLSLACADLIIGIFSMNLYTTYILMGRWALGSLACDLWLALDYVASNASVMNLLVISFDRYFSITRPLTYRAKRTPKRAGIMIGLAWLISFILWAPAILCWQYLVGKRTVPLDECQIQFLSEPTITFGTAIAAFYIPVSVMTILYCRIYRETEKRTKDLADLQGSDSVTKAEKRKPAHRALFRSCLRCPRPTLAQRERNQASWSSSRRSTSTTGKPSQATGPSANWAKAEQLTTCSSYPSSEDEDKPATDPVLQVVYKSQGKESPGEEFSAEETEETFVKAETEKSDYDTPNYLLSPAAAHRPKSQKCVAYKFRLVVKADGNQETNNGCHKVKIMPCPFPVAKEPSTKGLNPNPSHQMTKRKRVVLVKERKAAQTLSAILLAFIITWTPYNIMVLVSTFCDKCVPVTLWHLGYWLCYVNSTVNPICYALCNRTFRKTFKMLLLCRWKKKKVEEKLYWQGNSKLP
Description: PDSP Primary Binding target: CHRM5 - Compounds are tested at 10 uM concentration, plate are incubated at room temperature in the dark for 90 minutes. Reaction are stopped by vacuum filtration onto 0.3% polyethyleneimine soaked filter mats using Filtermate harvester. Scintilation cocktail is then melted onto microwave-dried filters on a hot plate and the radio activity is counted in Microbia counter.

[5] = target: T3, Alpha-1A adrenergic receptor (Homo sapiens) (UniProt P35348)
T3 sequence (whole entry): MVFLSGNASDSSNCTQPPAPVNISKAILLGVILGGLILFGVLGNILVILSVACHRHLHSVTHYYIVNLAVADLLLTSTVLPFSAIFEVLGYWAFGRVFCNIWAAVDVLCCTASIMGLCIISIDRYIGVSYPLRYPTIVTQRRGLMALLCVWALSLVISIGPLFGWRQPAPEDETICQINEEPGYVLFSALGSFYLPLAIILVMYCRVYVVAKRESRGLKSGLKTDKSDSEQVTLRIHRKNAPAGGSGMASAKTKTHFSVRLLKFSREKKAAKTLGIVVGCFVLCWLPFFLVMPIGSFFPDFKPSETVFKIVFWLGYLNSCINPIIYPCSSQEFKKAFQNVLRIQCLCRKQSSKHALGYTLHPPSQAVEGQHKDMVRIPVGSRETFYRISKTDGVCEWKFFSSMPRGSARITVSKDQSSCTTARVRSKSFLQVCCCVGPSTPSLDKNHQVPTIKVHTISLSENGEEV
Description: PDSP Primary Binding target: ADRA1A - Compounds are tested at 10 uM concentration, plate are incubated at room temperature in the dark for 90 minutes. Reaction are stopped by vacuum filtration onto 0.3% polyethyleneimine soaked filter mats using Filtermate harvester. Scintilation cocktail is then melted onto microwave-dried filters on a hot plate and the radio activity is counted in Microbia counter.

[6] = target: Mu-type opioid receptor (Homo sapiens) (UniProt P35372)
Sequence of Mu-type opioid receptor (Homo sapiens) (P35372 whole entry): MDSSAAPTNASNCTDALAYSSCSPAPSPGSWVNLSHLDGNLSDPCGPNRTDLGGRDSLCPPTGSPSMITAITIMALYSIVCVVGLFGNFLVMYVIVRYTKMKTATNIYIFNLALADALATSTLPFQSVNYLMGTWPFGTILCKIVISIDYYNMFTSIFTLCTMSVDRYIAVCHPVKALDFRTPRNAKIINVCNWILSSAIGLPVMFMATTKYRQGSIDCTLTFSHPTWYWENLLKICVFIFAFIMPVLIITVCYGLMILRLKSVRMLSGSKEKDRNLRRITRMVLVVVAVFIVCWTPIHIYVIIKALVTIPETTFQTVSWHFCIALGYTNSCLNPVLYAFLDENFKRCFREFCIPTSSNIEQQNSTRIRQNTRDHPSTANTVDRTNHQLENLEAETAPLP
Description: PDSP Primary Binding target: OPRM1 - Compounds are tested at 10 uM concentration, plate are incubated at room temperature in the dark for 90 minutes. Reaction are stopped by vacuum filtration onto 0.3% polyethyleneimine soaked filter mats using Filtermate harvester. Scintilation cocktail is then melted onto microwave-dried filters on a hot plate and the radio activity is counted in Microbia counter.

[7] = target: Translocator protein (Homo sapiens) (UniProt P30536)
Sequence of Translocator protein (Homo sapiens) (P30536 whole entry): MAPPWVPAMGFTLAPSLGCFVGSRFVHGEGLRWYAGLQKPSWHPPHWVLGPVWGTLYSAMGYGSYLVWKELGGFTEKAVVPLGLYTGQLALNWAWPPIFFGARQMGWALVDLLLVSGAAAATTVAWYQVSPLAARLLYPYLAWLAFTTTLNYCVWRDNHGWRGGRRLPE
Description: PDSP Primary Binding target: TSPO - Compounds are tested at 10 uM concentration, plate are incubated at room temperature in the dark for 90 minutes. Reaction are stopped by vacuum filtration onto 0.3% polyethyleneimine soaked filter mats using Filtermate harvester. Scintilation cocktail is then melted onto microwave-dried filters on a hot plate and the radio activity is counted in Microbia counter.

[8] = target: 5-hydroxytryptamine receptor 1D (Homo sapiens) (UniProt P28221)
Sequence of 5-hydroxytryptamine receptor 1D (Homo sapiens) (P28221 whole entry): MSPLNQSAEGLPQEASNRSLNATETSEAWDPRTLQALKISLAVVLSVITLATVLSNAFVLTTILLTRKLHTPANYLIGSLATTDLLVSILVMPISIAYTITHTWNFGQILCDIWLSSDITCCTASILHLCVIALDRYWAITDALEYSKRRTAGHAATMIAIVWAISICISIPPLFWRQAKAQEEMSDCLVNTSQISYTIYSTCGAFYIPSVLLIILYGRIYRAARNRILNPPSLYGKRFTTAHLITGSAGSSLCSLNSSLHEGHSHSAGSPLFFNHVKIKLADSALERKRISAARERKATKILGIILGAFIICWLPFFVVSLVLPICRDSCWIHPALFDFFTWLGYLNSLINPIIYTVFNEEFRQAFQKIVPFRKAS
Description: PDSP Primary Binding target: HTR1D - Compounds are tested at 10 uM concentration, plate are incubated at room temperature in the dark for 90 minutes. Reaction are stopped by vacuum filtration onto 0.3% polyethyleneimine soaked filter mats using Filtermate harvester. Scintilation cocktail is then melted onto microwave-dried filters on a hot plate and the radio activity is counted in Microbia counter.

[9] = target: T4, Alpha-1B adrenergic receptor (Homo sapiens) (UniProt P35368)
T4 sequence (whole entry): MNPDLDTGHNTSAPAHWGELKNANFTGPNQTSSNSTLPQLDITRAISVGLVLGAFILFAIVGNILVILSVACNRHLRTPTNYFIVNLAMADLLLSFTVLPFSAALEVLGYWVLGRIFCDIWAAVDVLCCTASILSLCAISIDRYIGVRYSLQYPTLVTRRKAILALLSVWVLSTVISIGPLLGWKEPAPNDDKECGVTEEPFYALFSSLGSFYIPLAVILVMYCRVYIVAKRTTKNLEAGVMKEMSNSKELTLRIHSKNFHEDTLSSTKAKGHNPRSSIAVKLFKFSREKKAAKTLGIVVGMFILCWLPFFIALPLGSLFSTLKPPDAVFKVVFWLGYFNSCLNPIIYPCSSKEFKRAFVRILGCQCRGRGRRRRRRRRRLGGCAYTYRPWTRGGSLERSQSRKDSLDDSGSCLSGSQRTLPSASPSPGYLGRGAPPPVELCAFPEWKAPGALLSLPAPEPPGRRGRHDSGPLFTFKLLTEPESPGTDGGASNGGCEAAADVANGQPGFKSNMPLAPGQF
Description: PDSP Primary Binding target: ADRA1B - Compounds are tested at 10 uM concentration, plate are incubated at room temperature in the dark for 90 minutes. Reaction are stopped by vacuum filtration onto 0.3% polyethyleneimine soaked filter mats using Filtermate harvester. Scintilation cocktail is then melted onto microwave-dried filters on a hot plate and the radio activity is counted in Microbia counter.

[10] = target: T5, 5-hydroxytryptamine receptor 2C (Homo sapiens) (UniProt P28335)
T5 sequence (whole entry): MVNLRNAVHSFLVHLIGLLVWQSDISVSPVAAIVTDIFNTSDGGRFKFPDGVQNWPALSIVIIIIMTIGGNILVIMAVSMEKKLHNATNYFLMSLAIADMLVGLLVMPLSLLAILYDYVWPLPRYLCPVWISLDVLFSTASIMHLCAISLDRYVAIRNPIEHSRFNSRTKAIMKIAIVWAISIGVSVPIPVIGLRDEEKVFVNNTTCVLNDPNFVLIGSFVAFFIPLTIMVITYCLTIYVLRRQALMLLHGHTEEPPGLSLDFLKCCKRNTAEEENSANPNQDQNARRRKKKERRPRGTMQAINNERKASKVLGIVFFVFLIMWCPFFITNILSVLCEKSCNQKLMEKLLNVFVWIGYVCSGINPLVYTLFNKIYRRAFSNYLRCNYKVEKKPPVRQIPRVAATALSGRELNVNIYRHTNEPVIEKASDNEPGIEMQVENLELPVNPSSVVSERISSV
Description: PDSP Primary Binding target: HTR2C - Compounds are tested at 10 uM concentration, plate are incubated at room temperature in the dark for 90 minutes. Reaction are stopped by vacuum filtration onto 0.3% polyethyleneimine soaked filter mats using Filtermate harvester. Scintilation cocktail is then melted onto microwave-dried filters on a hot plate and the radio activity is counted in Microbia counter.

Sequence of Histamine H2 receptor (Homo sapiens) (P25021 whole entry): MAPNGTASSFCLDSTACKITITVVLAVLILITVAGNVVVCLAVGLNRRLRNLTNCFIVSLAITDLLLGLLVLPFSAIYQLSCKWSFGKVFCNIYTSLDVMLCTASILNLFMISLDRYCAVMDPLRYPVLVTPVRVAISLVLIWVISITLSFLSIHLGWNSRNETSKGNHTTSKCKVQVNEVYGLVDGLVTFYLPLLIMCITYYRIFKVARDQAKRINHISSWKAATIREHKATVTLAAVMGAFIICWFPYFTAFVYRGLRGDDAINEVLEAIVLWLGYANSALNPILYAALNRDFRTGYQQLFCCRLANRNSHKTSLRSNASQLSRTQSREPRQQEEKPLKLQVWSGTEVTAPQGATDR

| Structure (SMILES) | inhibition [1] [%] | inhibition [2] [%] | inhibition [3] [%] | inhibition [4] [%] | inhibition [5] [%] | inhibition [6] [%] | inhibition [7] [%] | inhibition [8] [%] | inhibition [9] [%] | inhibition [10] [%] |
| --- | --- | --- | --- | --- | --- | --- | --- | --- | --- | --- |
| CC(C)NC(=O)c1ccc(C#Cc2ccncc2)cn1 | 25.7 | -5.94 | 29.8 | 43.2 | -5.19 | 0.15 | – | – | – | – |
| FC(F)(F)c1c(N2CCC(c3ccccc3)CC2)ccn2c(CC3CC3)nnc12 | 12.3 | – | 4.3 | -6.28 | -6.36 | 19.7 | 36.9 | – | – | – |
| c1cc(CN2CCCNCCNCCCNCC2)ccc1CN1CCCNCCNCCCNCC1 | 0.23 | 21.9 | 34.5 | 1.58 | -9.28 | 13.8 | 7.76 | 1.3 | 42.2 | – |
| CCOC(=O)c1cc(C#N)c(N2CCC(C(=O)NS(=O)(=O)Cc3ccccc3)CC2)nc1C | 17.2 | 3.98 | 21.2 | 28.6 | 33.7 | 4.87 | – | – | -8.97 | 6.09 |
| CCC[C@H](Oc1cc(C)c(-n2cc(C(F)(F)F)cn2)c(C)c1)c1ccc(C(=O)NCCC(=O)O)cc1 | -8.24 | – | 65.4 | 70.1 | 8.94 | 11 | 28.7 | – | – | -0.8 |
| CN(C)S(=O)(=O)c1ccc(NC(=S)N2CCC(C(O)(c3ccccc3)c3ccccc3)CC2)cc1 | 18.6 | -8.86 | 57.7 | – | -0.67 | 2.22 | 75.4 | – | -3.51 | 3.54 |
| CC1=C2C[C@H]3[C@@H](CC=C4C[C@@H](O)CC[C@@]43C)[C@@H]2CC[C@]12O[C@@H]1C[C@H](C)CN[C@H]1[C@H]2C | 20.5 | – | 38.6 | – | – | 10.4 | 13.5 | – | 13.7 | – |
| O=C(O)C1CN(Cc2ccc(OCc3ccc(Cl)c(Cl)c3)cc2)C1 | 29.6 | -8.5 | -2.67 | -2.07 | -0.54 | 1.29 | 3.35 | – | – | – |
| COc1ccc(CNC(=O)c2cc(-c3cncc(Cl)c3)cnc2-c2ccccn2)nc1OC | -5.76 | – | – | 0.79 | 0.56 | 30.5 | 17.5 | -5.62 | 0.01 | – |
| COc1cccc(-c2c(C)n(Cc3c(F)cccc3C(F)(F)F)c(=O)n(C[C@H](NCCCC(=O)O)c3ccccc3)c2=O)c1F | – | – | 44.5 | – | 7.84 | 11.9 | 15.8 | – | – | 1.76 |
| N#Cc1c(O)nc(SCc2cccc(F)c2F)nc1C1CC1 | 6.35 | – | – | – | – | – | 40.4 | 38.9 | -9.08 | -5.1 |
| C[C@]1(C(=O)N(CCCC(=O)O)Cc2cccc(Cl)c2)CCN1C(=O)c1csc2ccccc12 | 19.3 | -7.18 | -0.98 | -2.06 | -4.07 | – | 5.72 | – | -9.59 | – |
| O=C1O[C@]2(CC[C@H](C(=O)Nc3ccn(-c4ccccc4F)n3)CC2)c2cnccc21 | 2.76 | – | 3.84 | -6.98 | – | 4.44 | 1.2 | – | 3.66 | 18.3 |
| CCCNS(=O)(=O)Nc1ncnc(OCCOc2ncc(Br)cn2)c1-c1ccc(Br)cc1 | – | – | 42.6 | 11.6 | – | 30.6 | 51.2 | 9.11 | 12.1 | 4.95 |
| Cc1nc(-c2ccc(C(F)(F)F)cc2)sc1COc1ccc([C@H](CC(=O)O)c2ccon2)cc1 | 15.9 | – | – | – | – | -7.02 | 11.6 | 8.11 | 69 | -6.07 |
| CO[C@@H]1COCC[C@@H]1N[C@@H]1CC[C@@](C(=O)N2CCc3ncc(C(F)(F)F)cc3C2)(C(C)C)C1 | 14.9 | – | 47.5 | -4.29 | -0.61 | 11.2 | 11.4 | – | 2.58 | – |
| O=C(O)CC1CCC2(CC1)CCN(c1cc(OC(F)(F)F)ccc1Cl)CC2 | -4.3 | – | 17.5 | -6.92 | -7.1 | 34.3 | 7.83 | – | 0.25 | 13.1 |
| O=C(O)C1CN(Cc2ccc(-c3nc4cc(Cc5ccccc5F)ccc4s3)c(F)c2)C1 | 1.06 | -3.55 | -2.08 | – | -8.12 | -9.83 | 22.3 | – | – | 35.8 |
| Cc1cc([C@@H](C)Nc2cccc(-c3cc(C)c(C(=O)N[C@@H](C)C(=O)O)c(C)c3)c2)ccc1Cl | 22.5 | – | 70.7 | – | 11.3 | 16.5 | 62.7 | – | – | -0.82 |
| CC(C)Oc1ccccc1C(=O)Nc1ccccc1C(=O)Nc1cccc(S(=O)(=O)C(F)(F)F)c1 | 36 | -3.89 | 1.49 | -4.83 | -8.65 | -7.51 | 66.1 | – | -9.86 | 11.3 |
| Cc1c(F)cccc1NC(=O)Nc1ccc(Cl)c(S(=O)(=O)[C@H]2CCCNC2)c1O | 18.3 | – | 17.8 | – | 19.2 | -3.61 | 8.9 | -2.39 | – | -7.64 |
